From the NIST ThermoML archive (doi:10.1016/j.jct.2015.10.004) come the findings set out here.

The data set is described as follows: mn = molality of the nth substance listed, in mol/kg. The settings on record: 101 kPa, Liquid, Alternating current cell with electrodes.

Values joined by “and” are separate entries in the source; they are usually repeats but may differ in a detail not shown here. Equal values may be shown once. ± gives the expanded uncertainty stated by the source.

In the case of `C[C@H](N)C(=O)N[C@@H](CCC(N)=O)C(=O)O` [L-alanyl-L-glutamine] + O, the electrical conductivity worked out at 0.0034 ± 0.0004 S/m (293.15 K, m1 = 0.05); 0.00555 ± 0.00046 S/m (293.15 K, m1 = 0.1); 0.00766 ± 0.00052 S/m (293.15 K, m1 = 0.15); 0.0107 ± 0.00072 S/m (293.15 K, m1 = 0.2); 0.00364 ± 0.00043 S/m (298.15 K, m1 = 0.05); 0.00599 ± 0.00066 S/m (298.15 K, m1 = 0.1). Moreover, the electrical conductivity is 0.0084 ± 0.0007 S/m (298.15 K, m1 = 0.15); 0.0115 ± 0.00079 S/m (298.15 K, m1 = 0.2); 0.00391 ± 0.00049 S/m (303.15 K, m1 = 0.05); 0.00648 ± 0.0006 S/m (303.15 K, m1 = 0.1); 0.009 ± 0.00071 S/m (303.15 K, m1 = 0.15); 0.0124 ± 0.00086 S/m (303.15 K, m1 = 0.2). The electrical conductivity runs as follows: (308.15 K, m1 = 0.05) 0.00427 ± 0.00054 S/m; (308.15 K, m1 = 0.1) 0.00707 ± 0.00069 S/m; (308.15 K, m1 = 0.15) 0.00985 ± 0.00079 S/m; (308.15 K, m1 = 0.2) 0.0138 ± 0.00093 S/m; (313.15 K, m1 = 0.05) 0.00463 ± 0.0006 S/m; (313.15 K, m1 = 0.1) 0.00792 ± 0.00078 S/m. The electrical conductivity by setting is: (313.15 K, m1 = 0.15) 0.0112 ± 0.00088 S/m; (313.15 K, m1 = 0.2) 0.0153 ± 0.001 S/m.

With `CC(C)C[C@H](NC(=O)CN)C(=O)O` [glycyl-L-leucine] + O, the electrical conductivity is, setting by setting: (293.15 K, m1 = 0.05) 0.00321 ± 0.0004 S/m; (293.15 K, m1 = 0.1) 0.00533 ± 0.00046 S/m; (293.15 K, m1 = 0.15) 0.0074 ± 0.00054 S/m; (293.15 K, m1 = 0.2) 0.0104 ± 0.0007 S/m; (298.15 K, m1 = 0.05) 0.00345 ± 0.00044 S/m; (298.15 K, m1 = 0.1) 0.0058 ± 0.00052 S/m. Besides, the electrical conductivity (298.15 K, m1 = 0.15) came out at 0.00809 ± 0.0006 S/m; the electrical conductivity (298.15 K, m1 = 0.2) came out at 0.0113 ± 0.00075 S/m; the electrical conductivity (303.15 K, m1 = 0.05) is 0.00373 S/m and 0.00372 S/m; the electrical conductivity (303.15 K, m1 = 0.1) is 0.00634 ± 0.00056 S/m; the electrical conductivity (303.15 K, m1 = 0.15) was 0.00889 ± 0.00066 S/m; the electrical conductivity (303.15 K, m1 = 0.2) was 0.0124 ± 0.00084 S/m. For the same compound, the electrical conductivity runs as follows: (308.15 K, m1 = 0.05) 0.00406 ± 0.00053 S/m; (308.15 K, m1 = 0.1) 0.00703 ± 0.00063 S/m; (308.15 K, m1 = 0.15) 0.00987 ± 0.00073 S/m; (308.15 K, m1 = 0.2) 0.0137 ± 0.00092 S/m; (313.15 K, m1 = 0.05) 0.00455 ± 0.00057 S/m; (313.15 K, m1 = 0.1) 0.00781 ± 0.0007 S/m. Moreover, the electrical conductivity turned out to be 0.011 ± 0.00081 S/m (313.15 K, m1 = 0.15) and 0.0152 ± 0.001 S/m (313.15 K, m1 = 0.2).

Turning to `CC(C)[C@H](NC(=O)CN)C(=O)O` [glycyl-L-valine] + O, the electrical conductivity came to 0.00323 ± 0.00039 S/m (293.15 K, m1 = 0.05); 0.00535 ± 0.00047 S/m (293.15 K, m1 = 0.1); 0.00742 ± 0.00054 S/m (293.15 K, m1 = 0.15); 0.0104 ± 0.00071 S/m (293.15 K, m1 = 0.2); 0.00347 ± 0.00043 S/m (298.15 K, m1 = 0.05); 0.00582 ± 0.00052 S/m (298.15 K, m1 = 0.1). Besides, the electrical conductivity stood at 0.00811 ± 0.00058 S/m (298.15 K, m1 = 0.15); 0.0114 ± 0.00077 S/m (298.15 K, m1 = 0.2); 0.00374 ± 0.00047 S/m (303.15 K, m1 = 0.05); 0.00636 ± 0.00056 S/m (303.15 K, m1 = 0.1); 0.00891 ± 0.00067 S/m (303.15 K, m1 = 0.15); 0.0124 ± 0.00084 S/m (303.15 K, m1 = 0.2). Further, the electrical conductivity by setting is: (308.15 K, m1 = 0.05) 0.00407 ± 0.00052 S/m; (308.15 K, m1 = 0.1) 0.00705 ± 0.00063 S/m; (308.15 K, m1 = 0.15) 0.00989 ± 0.00074 S/m; (308.15 K, m1 = 0.2) 0.0137 ± 0.00093 S/m; (313.15 K, m1 = 0.05) 0.00456 ± 0.00058 S/m; (313.15 K, m1 = 0.1) 0.00783 ± 0.00069 S/m. The electrical conductivity worked out at 0.011 ± 0.00081 S/m (313.15 K, m1 = 0.15) and 0.0152 ± 0.001 S/m (313.15 K, m1 = 0.2).

For the compound `NCC(=O)N[C@@H](CCC(N)=O)C(=O)O` [glycyl-l-glutamine] + O, the electrical conductivity by setting is: (293.15 K, m1 = 0.05) 0.00342 ± 0.00042 S/m; (293.15 K, m1 = 0.1) 0.00556 ± 0.00048 S/m; (293.15 K, m1 = 0.15) 0.00768 ± 0.00049 S/m; (293.15 K, m1 = 0.2) 0.0107 ± 0.00072 S/m; (298.15 K, m1 = 0.05) 0.00366 ± 0.00045 S/m; (298.15 K, m1 = 0.1) 0.006 ± 0.00053 S/m. In addition, the electrical conductivity was 0.00832 ± 0.00057 S/m (298.15 K, m1 = 0.15); 0.0116 ± 0.00078 S/m (298.15 K, m1 = 0.2); 0.00392 ± 0.00051 S/m (303.15 K, m1 = 0.05); 0.00649 ± 0.0006 S/m (303.15 K, m1 = 0.1); 0.00902 ± 0.00065 S/m (303.15 K, m1 = 0.15); 0.0125 ± 0.00084 S/m (303.15 K, m1 = 0.2). Moreover, the electrical conductivity (308.15 K, m1 = 0.05) worked out at 0.00428 ± 0.00056 S/m; the electrical conductivity (308.15 K, m1 = 0.1) came out at 0.00708 ± 0.00063 S/m; the electrical conductivity (308.15 K, m1 = 0.15) was 0.00999 ± 0.00068 S/m; the electrical conductivity (308.15 K, m1 = 0.2) was 0.0139 ± 0.00092 S/m; the electrical conductivity (313.15 K, m1 = 0.05) amounted to 0.00464 ± 0.0006 S/m; the electrical conductivity (313.15 K, m1 = 0.1) was 0.00793 S/m and 0.00773 S/m. In addition, the electrical conductivity was 0.0108 S/m and 0.0112 S/m (313.15 K, m1 = 0.15); 0.0148 S/m and 0.0158 S/m (313.15 K, m1 = 0.2).

As to `NCC(=O)NCC(=O)O` [glycylglycine] + O, the electrical conductivity was 0.00328 ± 0.00046 S/m (293.15 K, m1 = 0.05); 0.00543 ± 0.00048 S/m (293.15 K, m1 = 0.1); 0.00745 ± 0.00053 S/m (293.15 K, m1 = 0.15); 0.0106 ± 0.00072 S/m (293.15 K, m1 = 0.2); 0.00355 ± 0.00048 S/m (298.15 K, m1 = 0.05); 0.00593 ± 0.00053 S/m (298.15 K, m1 = 0.1). In addition, the electrical conductivity was 0.00818 ± 0.0006 S/m (298.15 K, m1 = 0.15); 0.0115 ± 0.00079 S/m (298.15 K, m1 = 0.2); 0.00385 ± 0.00052 S/m (303.15 K, m1 = 0.05); 0.00652 ± 0.00059 S/m (303.15 K, m1 = 0.1); 0.00904 ± 0.00067 S/m (303.15 K, m1 = 0.15); 0.0125 ± 0.00083 S/m (303.15 K, m1 = 0.2). In addition, the electrical conductivity is, setting by setting: (308.15 K, m1 = 0.05) 0.00429 ± 0.00058 S/m; (308.15 K, m1 = 0.1) 0.00724 ± 0.00065 S/m; (308.15 K, m1 = 0.15) 0.0101 S/m; (308.15 K, m1 = 0.2) 0.014 ± 0.00095 S/m; (313.15 K, m1 = 0.05) 0.00474 ± 0.00083 S/m; (313.15 K, m1 = 0.1) 0.00805 ± 0.00071 S/m. In addition, the electrical conductivity (313.15 K, m1 = 0.15) stood at 0.0113 ± 0.00082 S/m and the electrical conductivity (313.15 K, m1 = 0.2) came out at 0.0155 ± 0.001 S/m.
